Counter-ions that a name gives are not always drawn. Like-named read-outs stand apart in the source and are kept apart here.
How the values were obtained:
[1] = test system: GABAA receptor ion channel subunit combinations α1β3γ2s, α2β3γ2s, α3β3γ2s or α5β3γ2s; experiment: HTS of LOPAC library on the panel of GABAA cell lines, fluorescent membrane potential cell-based assay
Procedure: Production of cell lines: Each gene of interest was subcloned into an independent mammalian expression vector containing a detection tag and drug selectable marker and transfected into HEK293T and CHO cells cultured using DMEM supplemented with 50 mL fetal bovine serum, a 4 mM L-Glutamine, 10 mM Hepes pH 7.4. After 1 to 3 days cells were transferred to fresh media containing mild selective pressure for 7 to 14 days. On the day of the experiment, each well of four to six 24-well tissue culture plates was plated with 200 ul to 400 ul of transfected cells at 1.25 to 2×10^6 cells/mL in serum-free media and exposed to differentially-labeled signaling probes that can hybridize with the expression products. For each well, 1.7 to 2.5 uL of each probe at a concentration of 2.5 to 5 uM was added to 50 uL of serum free media in tube A and 0.3 to 0.75 uL of transfection reagent, using Lipofectamine for HEK cells (Thermo Fisher 18324) and jetPEI for CHO (Polyplus Transfection 101) was added to tube B. The contents of tubes A and B were mixed and incubated at room temperature for 25 to 30 minutes prior to addition to the well. Following a 1 to 2 hour incubation at 37° C. in a tissue culture incubator, serum-free media was added to the well up to a total volume of 1 mL. The plates were spun at 2,000 RPM for 4 minutes. 750 uL of media was aspirated and replaced with 250 uL of fresh serum-free media. The cells were incubated for an additional 2 to 2.5 hours then used to isolate individual positive cells using Beckman Coulter Epic Altra or Becton Dickinson FACS Aria flow cytometers.
(§1) Cell-based Assays: Functional testing using fluorescent cell-based assays in the absence of any antibiotic-mediated selectable pressure was performed over time (typically for at least 4 to 6 weeks) to identify inherently stable clones. Commonly available fluorescent membrane potential and calcium flux kits and reagents were used for fluorescent cell-based assays in 96-well and 384-well plates using the Molecular Devices FLIPR 3 and Hamamatsu FDSS 6000 plate readers as described (Shekdar 2011; Shekdar and Sawchuk 2012; Shekdar and Venkatachalan 2012, Shekdar 2017). Electrophysiology of ion channel cell lines was obtained using the Nanion Technologies Patchliner patch clamp system. The patch clamp recordings were conducted according to Nanion's standard procedure (Obergrussberger 2014). Currents were measured using the whole-cell configuration. The extracellular solution contained the following: 140 mM NaCl, 4 mM KCl, 1 mM MgCl2, 2 mM CaCl2), 5 mM glucose, 10 mM Hepes, pH 7.4 (adjusted with NaOH). The intracellular solution for sodium current recordings contained the following: 50 mM CsCl, 10 mM NaCl, 60 mM CsF, 20 mM EGTA, 10 mM Hepes, pH 7.2 (adjusted with CsOH). For transient transfection studies, Fugene 6 was used to transfect expression plasmid into cells cultured as above and cells were assayed three days post-transfection.

CFTR = experiment: functional cell-based assay of the CFTR cell line (response to Forskolin); settings: FIG. 22A left panel, read-out: EC50 value, dose-response curve for the CFTR cell line
Procedure: Production of cell lines: Each gene of interest was subcloned into an independent mammalian expression vector containing a detection tag and drug selectable marker and transfected into HEK293T and CHO cells cultured using DMEM supplemented with 50 mL fetal bovine serum, a 4 mM L-Glutamine, 10 mM Hepes pH 7.4. After 1 to 3 days cells were transferred to fresh media containing mild selective pressure for 7 to 14 days. On the day of the experiment, each well of four to six 24-well tissue culture plates was plated with 200 ul to 400 ul of transfected cells at 1.25 to 2×10^6 cells/mL in serum-free media and exposed to differentially-labeled signaling probes that can hybridize with the expression products. […]
(§2) Cell-based Assays: Functional testing using fluorescent cell-based assays in the absence of any antibiotic-mediated selectable pressure was performed over time (typically for at least 4 to 6 weeks) to identify inherently stable clones. Commonly available fluorescent membrane potential and calcium flux kits and reagents were used for fluorescent cell-based assays in 96-well and 384-well plates using the Molecular Devices FLIPR 3 and Hamamatsu FDSS 6000 plate readers as described (Shekdar 2011; Shekdar and Sawchuk 2012; Shekdar and Venkatachalan 2012, Shekdar 2017). […] Currents were measured using the whole-cell configuration. […]

[2] = test system: salty taste of sodium chloride; experiment: human sensory taste testing, pairwise comparisons; assay type: in vivo; settings: pairwise comparisons of 45 mM NaCl+15 pg STE1/mL
Procedure: The sensory studies used pairwise comparisons of 45 mM NaCl+15 pg STE1/mL using a human sensory taste testing protocol approved by an institutional review board, 13 out of 15 participants selected the sample containing STE1 as more salty.

proteolyzed αβγ-ENaC = experiment: HTS of a compound library against proteolyzed ENaC cell line; assay type: cell-based
Procedure: as §1, with “The intracellular solution for sodium current recordings contained the following: 50 mM CsCl, 10 mM NaCl, 60 mM CsF, 20 mM EGTA, 10 mM Hepes, pH 7.2 (adjusted with CsOH). For transient transfection studies, Fugene 6 was used to transfect expression plasmid into cells cultured as above and cells were assayed three days post-transfection.” left out
(§3) Finally, Chromovert® Technology was used to create a cell line for ENaC. […] One potentiator identified during HTS of proteolyzed ENaC was assessed in human sensory studies where it was confirmed to enhance the salty taste of sodium chloride, as shown in FIG. 23E.

αβγ-ENaC = biological target: T1, αβγ-ENaC (Homo sapiens, UniProt P37088+P51168+P51170); experiment: cell-based assay selective for αβγ-ENaC activity (response to sodium increase); settings: 75 mM increase in sodium concentration, FIG. 23B right panel
T1 construct: expressed in transfected cells
Procedure: Production of cell lines: Each gene of interest was subcloned into an independent mammalian expression vector containing a detection tag and drug selectable marker and transfected into HEK293T and CHO cells cultured using DMEM supplemented with 50 mL fetal bovine serum, a 4 mM L-Glutamine, 10 mM Hepes pH 7.4. After 1 to 3 days cells were transferred to fresh media containing mild selective pressure for 7 to 14 days. […]
as §2, §3

[3] = LOPAC (Sigma 1280) screen on panel of four GABAA cell lines

T1 sequence (P51170 whole entry): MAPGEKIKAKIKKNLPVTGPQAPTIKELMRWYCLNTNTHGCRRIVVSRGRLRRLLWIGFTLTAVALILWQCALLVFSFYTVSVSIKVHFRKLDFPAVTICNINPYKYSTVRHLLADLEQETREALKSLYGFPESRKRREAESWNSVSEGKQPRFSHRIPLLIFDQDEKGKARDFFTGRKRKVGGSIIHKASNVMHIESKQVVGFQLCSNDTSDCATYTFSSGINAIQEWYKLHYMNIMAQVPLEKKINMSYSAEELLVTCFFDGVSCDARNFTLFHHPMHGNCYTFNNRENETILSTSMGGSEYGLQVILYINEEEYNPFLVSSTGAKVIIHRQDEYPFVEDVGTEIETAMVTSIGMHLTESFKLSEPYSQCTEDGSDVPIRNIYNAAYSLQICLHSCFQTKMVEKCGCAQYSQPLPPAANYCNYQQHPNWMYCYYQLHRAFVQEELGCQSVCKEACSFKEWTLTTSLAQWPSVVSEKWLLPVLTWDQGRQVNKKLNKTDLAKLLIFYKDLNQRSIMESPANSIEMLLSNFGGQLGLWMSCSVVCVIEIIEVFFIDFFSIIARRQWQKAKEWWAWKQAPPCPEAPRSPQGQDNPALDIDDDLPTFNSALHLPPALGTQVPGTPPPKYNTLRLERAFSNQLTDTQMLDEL
T1 sequence (P51168 whole entry): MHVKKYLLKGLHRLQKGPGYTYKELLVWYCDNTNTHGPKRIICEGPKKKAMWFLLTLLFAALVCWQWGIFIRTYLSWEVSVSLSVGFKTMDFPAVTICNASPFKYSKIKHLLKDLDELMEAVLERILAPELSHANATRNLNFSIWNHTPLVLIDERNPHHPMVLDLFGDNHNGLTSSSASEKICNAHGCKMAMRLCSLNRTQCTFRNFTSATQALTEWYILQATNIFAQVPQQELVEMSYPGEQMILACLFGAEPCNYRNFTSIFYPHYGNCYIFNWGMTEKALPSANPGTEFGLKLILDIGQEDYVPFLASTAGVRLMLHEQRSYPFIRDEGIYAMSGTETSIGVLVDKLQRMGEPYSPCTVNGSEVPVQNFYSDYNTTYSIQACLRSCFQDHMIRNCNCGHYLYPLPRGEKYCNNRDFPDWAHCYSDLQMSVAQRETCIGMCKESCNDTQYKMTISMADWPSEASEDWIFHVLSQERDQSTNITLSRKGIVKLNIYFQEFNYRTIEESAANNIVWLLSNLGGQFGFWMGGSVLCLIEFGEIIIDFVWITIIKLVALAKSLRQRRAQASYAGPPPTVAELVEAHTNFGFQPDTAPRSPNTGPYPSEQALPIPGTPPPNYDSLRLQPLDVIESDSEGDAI
T1 sequence (P37088 whole entry): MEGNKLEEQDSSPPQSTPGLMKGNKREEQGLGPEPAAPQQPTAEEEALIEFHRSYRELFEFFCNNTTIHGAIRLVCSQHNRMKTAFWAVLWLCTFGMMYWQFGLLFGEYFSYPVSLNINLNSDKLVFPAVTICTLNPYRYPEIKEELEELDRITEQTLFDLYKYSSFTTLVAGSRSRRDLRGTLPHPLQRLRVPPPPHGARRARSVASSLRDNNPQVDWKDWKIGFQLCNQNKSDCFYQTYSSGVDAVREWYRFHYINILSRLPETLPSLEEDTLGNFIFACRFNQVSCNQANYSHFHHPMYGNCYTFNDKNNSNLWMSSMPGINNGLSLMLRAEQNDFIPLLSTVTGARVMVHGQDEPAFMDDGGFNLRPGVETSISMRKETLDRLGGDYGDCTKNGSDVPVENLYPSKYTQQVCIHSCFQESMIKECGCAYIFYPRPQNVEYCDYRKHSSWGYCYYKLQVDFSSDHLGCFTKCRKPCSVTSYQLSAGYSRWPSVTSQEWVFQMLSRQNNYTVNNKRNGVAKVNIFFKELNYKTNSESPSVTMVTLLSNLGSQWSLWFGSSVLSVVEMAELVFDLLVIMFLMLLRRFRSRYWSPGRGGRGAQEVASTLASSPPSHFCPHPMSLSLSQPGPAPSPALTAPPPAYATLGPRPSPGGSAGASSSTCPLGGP

Compound	HTS hit: activated at least one of the GABAA cell lines at least as much as GABA itself [1, 3]	further results
C[C@]12CC[C@@H](O)C[C@@H]1CC[C@@H]1[C@@H]2CC[C@]2(C)[C@@H](C(=O)CO)CC[C@@H]12 [3-alpha, 21-dihydroxy-5-alpha-pregnan-20-one]	activated at least one of the cell lines at least as much as GABA itself	–
CC(=O)[C@H]1CC[C@H]2[C@@H]3CC[C@H]4C[C@H](O)CC[C@]4(C)[C@H]3CC[C@]12C [5-alpha-pegnan-3alpha-ol-20-one]	activated at least one of the cell lines at least as much as GABA itself	–
CC(=O)[C@H]1CC[C@H]2[C@@H]3CC[C@H]4C[C@H](O)CC[C@]4(C)[C@H]3C(=O)C[C@]12C [5-alpha-pregnan-3alpha-ol-11,20-dione]	activated at least one of the cell lines at least as much as GABA itself	–
C[C@]12CC[C@@H](O)C[C@@H]1CC[C@@H]1[C@@H]2CC[C@]2(C)C(=O)CC[C@@H]12 [Androsterone]	–	HTS hit: activated at least one of the GABAA cell lines at least as much as GABA itself [1]: identified
CN1C(=O)CCS(=O)(=O)C1c1ccc(Cl)cc1 (centres unmarked) [Chlormezanone]	identified	–
OCCN(CCO)c1nc(N2CCCCC2)c2nc(N(CCO)CCO)nc(N3CCCCC3)c2n1 [Dipyridamole]	identified	–
C=C[C@@]1(C)CC(=O)[C@]2(O)[C@@]3(C)[C@@H](O)CCC(C)(C)[C@@H]3[C@H](O)[C@H](OC(C)=O)[C@@]2(C)O1 [Forskolin]	–	EC50 (CFTR): 256 nM
NCCCC(=O)O [GABA]	activated at least one of the cell lines at least as much as GABA itself	–
COc1cc(/C=C(\C#N)C(=O)c2ccc(O)c(O)c2)cc(I)c1O [I-OMe-Tyrphostin AG 538]	identified	–
O=C(O)C1=CCNCC1 [Isoguvacine hydrochloride]	activated at least one of the cell lines at least as much as GABA itself	–
NCc1cc(=O)[nH]o1 [Muscimol hydrobromide]	activated at least one of the cell lines at least as much as GABA itself	–
O=C(Nc1ccc([N+](=O)[O-])cc1Cl)c1cc(Cl)ccc1O [Niclosamide]	identified	–
O=S(=O)(O)C1CCNCC1 [Piperidine-4-sulphonic acid]	activated at least one of the cell lines at least as much as GABA itself	–
CC(C)c1cccc(C(C)C)c1O [Propofol]	–	HTS hit: activated at least one of the GABAA cell lines at least as much as GABA itself [1]: activated at least one of the cell lines at least as much as GABA itself
CCCc1ccc(OC(=O)c2ccco2)cc1 [STE1, 4-propylphenyl 2-furoate]	–	participants who selected the sample containing STE1 as more salty [2]: 13 out of 15; activity identified during HTS of proteolyzed αβγ-ENaC (proteolyzed αβγ-ENaC): potentiator of proteolyzed αβγ-ENaC
CCCCNc1c(C(=O)OCC)c(C)nc2c1cnn2CC [Tracazolate]	activated at least one of the cell lines at least as much as GABA itself	–
CC(C)(C)c1cc(C=C(C#N)C#N)cc(C(C)(C)C)c1O [Tyrphostin A9]	identified	–
N=C(N)NC(=O)c1nc(Cl)c(N)nc1N [amiloride]	–	effect on the response of the αβγ-ENaC cell line to a sodium increase (αβγ-ENaC): inhibition of the response to a 75 mM increase in sodium concentration
Ivermectin	identified	–
